Each structure is given as a SMILES string. ≈ marks a conversion by molar mass, not a printed value.

The values that follow come from patent US4263294A, “Maytansinoids, pharmaceutical compositions thereof and method of use thereof” (Takeda Chemical Industries, Ltd., priority 1978, dated 1981).

In test [1] the test system is melanoma B-16 tumor cells. Description: Antitumor activity, life span prolongation in mice with intraperitoneally transplanted melanoma B-16 (NCI protocol 1,300). Type of test: in vivo. As to conditions: intraperitoneally once daily for 9 consecutive days. As for the experimental part:
Therapeutic tests were carried out in mice according to NCI-protocol 1,300, Cancer Chemother, Reports, Part 3, 1972, Vol. 3, No. 2, in which melanoma B-16 tumor cells had been intraperitoneally transplanted, compound (I) being administered intraperitoneally once daily for 9 consecutive days.

Test [2] has as its system Tetrahymena pyriformis W. Put plainly: Antiprotozoal activity, growth inhibition by serial dilution method. Type of test: cell-based. The note with it: 28° C., 44 to 48 hours, pH 7.0, serial dilution method. As for the experimental part:
Antiprotozoal activity of compound (I) was assayed with Tetrahymena pyriformis W as the test organism and a medium composed of 20 g tryptose-peptone (Difco Co.), 1 g yeast extract, 2 g glucose, 1000 ml distilled water, 10 ml 1 M phosphate buffer (pH 7.0) as the assay medium. The microorganism was incubated at 28° C. for 44 to 48 hours and the growth inhibitory activity of compound (I) was assayed by the serial dilution method.

Consider `COc1cc2cc(c1Cl)N(C)C(=O)CC(OC(=O)Nc1ccccc1)C1(C)OC1C(C)C1CC(O)(NC(=O)O1)C(OC)C=CC=C(C)C2` (centres unmarked) [Maytansinol 3-(N-phenyl)carbamate, maytansinol 3-N-phenylcarbamate], for which the “Antitumor activities B-16 (T/C%)” value in test [1] (100 μg/kg) worked out at 123%; in test [1] (200 μg/kg), 151%; in test [1] (400 μg/kg), 161%. Also, the MIC in test [2] is no less than 8 µg/mL.

Take `COc1cc2cc(c1Cl)N(C)C(=O)CC(OC(=O)OC(C)C)C1(C)OC1C(C)C1CC(O)(NC(=O)O1)C(OC)C=CC=C(C)C2` (centres unmarked) [Maytansinol 3-isopropylcarbonate, maytansinol 3-isopropylcarbonate]: the “Antitumor activities B-16 (T/C%)” value is on record as 150% in test [1] (50 μg/kg), 171% in test [1] (100 μg/kg) and 171% in test [1] (200 μg/kg). The same molecule registered a minimum inhibitory concentration (MIC) in test [2] of 4 to 8 µg/mL (≈ 6.14 to 12.3 µM).

What is called MIC is the least concentration at which growth counts as inhibited. A low value points to a more susceptible organism.
